For one assay, the target named is RNR (RNR1:RNR2) (Homo sapiens (Human), UniProt P23921+P31350). In words: RNR enzyme activity, rapid-fire mass spectrometry (RFMS) assay. The assay is classed as biochemical. The following applies: [RNR] 50 nM, 1:1 RNR1:RNR2, [CDP] 5 μM, [ATP] 1 mM, 37° C., 45 min. As for the experimental part: A rapid-fire mass spectrometry (RFMS) assay was used to assess RNR enzyme activity using a 384 well plate and a robotic platform.
The plate layout included two validated reference compounds (Triapine (3-AP) and Hydroxyurea (HU)): • A dose response in duplicate; top concentration: 5 μM (3-AP) and 250 μM (HU), semi-log • dilutions. • Spike wells in triplicate randomly spotted at four concentrations: • 250 μM, 100 μM, 30 μM and 2 μM for HU • 5 μM, 2 μM, 0.6 μM and 0.04 μM for 3-AP
First, the multidrop pipes were saturated for 30 minutes with enzymatic solution. Then 30 μL of Stop solution was distributed in column 24. Next, 15 μL of enzyme was distributed in column 1 to 24. Next, a pre-incubation step of 15 minutes at room temperature occurred, followed by distribution of 15 μL of substrate solution (column 1 to 24). Next, the plate was incubated for 45 minutes at 37° C. 30 μL of Stop solution was distributed to columns 1 to 23.
The final parameters for the enzyme reactions were: • Incubation: 37° C., 45 min • [CDP]: 5 μM; [ATP]: 1 mM; [NADPH]: No • [RNR]final: 50 nM with 1:1 (RNR1:RNR2) ratio • Final volume: 30 μL • Stop solution: 6% HCOOH containing 2 μM of 15
The compounds were screened at concentrations from 10 nM to 30 μM.

The test system of assay [1] is pCHK1 (S345) in Colo320 DM cells. In words: CHK1 cellular activity (phospho-CHK1 AlphaLisa). The assay is classed as cell-based, human. The following applies: compound overnight (approximately 16 hours). As for the experimental part:
Phospho-CHK1 cellular activity was measured as a marker of replication stress which is a consequence of RNR inhibition.
Colo320 DM cells (ATCC #CCL-220, derived from human colorectal adenocarcinoma, Dukes' type C) were seeded on a 96-well cell culture treated assay plate at a density of 50,000 cells/well in 200 μL of RPMI-1640 media supplemented with 10% Fetal Bovine Serum and incubated at 37 degrees Celsius overnight. The following day, test compound dilutions were added directly to the plated cells by a Tecan digital dispenser to a final DMSO concentration of <0.5% and incubated at 37 degrees Celsius overnight (approximately 16 hours). The following day all culture media is removed from the cells. 75 μL of 1× AlphaLisa lysis buffer is added to each well and plates are agitated on a shaker for 30 minutes at room temperature. The lysis of cells and detection of pCHK1 (S345) are performed with reagents contained within the AlphaLisa Sure Fire assay kit (Perkin Elmer #ALSU-PCHK1-A) according to the manufacturer's instructions. 10 μL of each lysate was then transferred to a white, 384-well assay plate (Perkin Elmer #6008280). 5 μL of Acceptor mix was then added to each well of lysate in the white, 384-well assay plate and incubated in the dark at room temperature for 60 minutes. 5 μL of Donor mix was then added to each well of the white, 384-well assay plate in subdued light and incubated at room temperature for 60 minutes. Plates are read on an Alpha Technology-compatible plate reader using standard AlphaLisa settings.

A value given as a limit tells only on which side of the number the result lay.

Sequence of RNR (RNR1:RNR2) (P23921 whole entry): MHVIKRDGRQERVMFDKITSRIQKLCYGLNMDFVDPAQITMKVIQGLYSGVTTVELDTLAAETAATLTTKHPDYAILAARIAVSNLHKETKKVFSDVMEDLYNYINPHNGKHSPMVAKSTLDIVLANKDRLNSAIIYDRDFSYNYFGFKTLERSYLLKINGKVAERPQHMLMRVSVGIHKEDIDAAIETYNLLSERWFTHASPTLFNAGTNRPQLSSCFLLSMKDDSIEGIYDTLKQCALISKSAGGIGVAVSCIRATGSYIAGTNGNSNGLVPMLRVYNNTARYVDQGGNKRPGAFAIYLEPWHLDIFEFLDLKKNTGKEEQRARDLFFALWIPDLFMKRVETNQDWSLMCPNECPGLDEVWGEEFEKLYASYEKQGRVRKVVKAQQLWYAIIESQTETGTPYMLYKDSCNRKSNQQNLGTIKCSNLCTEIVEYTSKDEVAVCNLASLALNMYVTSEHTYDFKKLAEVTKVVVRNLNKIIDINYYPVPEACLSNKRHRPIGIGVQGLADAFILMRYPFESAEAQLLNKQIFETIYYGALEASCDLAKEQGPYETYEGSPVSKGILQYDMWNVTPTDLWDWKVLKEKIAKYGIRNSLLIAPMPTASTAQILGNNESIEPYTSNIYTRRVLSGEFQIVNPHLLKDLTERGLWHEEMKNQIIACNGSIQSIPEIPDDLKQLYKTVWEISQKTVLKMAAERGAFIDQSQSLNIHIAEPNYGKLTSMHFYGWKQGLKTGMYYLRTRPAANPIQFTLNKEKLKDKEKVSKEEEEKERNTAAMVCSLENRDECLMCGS
Sequence of RNR (RNR1:RNR2) (P31350 whole entry): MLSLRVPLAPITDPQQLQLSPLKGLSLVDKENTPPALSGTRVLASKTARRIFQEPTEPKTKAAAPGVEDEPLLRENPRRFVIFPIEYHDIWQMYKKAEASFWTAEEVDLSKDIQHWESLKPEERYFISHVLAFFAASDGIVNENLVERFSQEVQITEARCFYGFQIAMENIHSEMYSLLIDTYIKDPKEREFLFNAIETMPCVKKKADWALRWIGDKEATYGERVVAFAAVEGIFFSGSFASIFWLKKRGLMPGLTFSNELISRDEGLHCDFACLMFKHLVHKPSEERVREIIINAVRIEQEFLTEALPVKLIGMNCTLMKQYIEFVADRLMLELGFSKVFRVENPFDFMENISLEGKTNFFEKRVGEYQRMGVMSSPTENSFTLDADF

One may read the IC50 as the concentration needed to halve the response being measured. Lower therefore signals inhibition by little substance. As for `Cc1ccc(F)c([C@@H](C)[C@H](NS(=O)(=O)c2cc(C(C)(C)O)c(Cl)cc2C(N)=O)c2nn[nH]n2)c1C` (racemic) [Example 13, rac-5-chloro-2-(N-((1R,2S)-2-(6-fluoro-2,3-dimethylphenyl)-1-(2H-tetrazol-5-yl)propyl)sulfamoyl)-4-(2-hydroxypropan-2-yl)benzamide], the IC50 against RNR (RNR1:RNR2) was not above 100 nM; in assay [1] (Homo sapiens, COLO 320DM, 16 h), 50 to 100 µM. The like results for `COC(=O)Cc1cc(Cl)ccc1S(=O)(=O)N[C@H](c1nn[nH]n1)[C@H](C)c1c(F)ccc(C)c1C` (racemic) [Example 14, rac-methyl 2-(5-chloro-2-(N-((1R,2S)-2-(6-fluoro-2,3-dimethylphenyl)-1-(2H-tetrazol-5-yl)propyl)sulfamoyl)phenyl)acetate] were, in that order, 100 to 1000 nM and 10 to 30 µM. The like results for `Cc1ccc(F)c([C@@H](C)[C@H](NS(=O)(=O)c2ncc(Br)cc2C(N)=O)c2nn[nH]n2)c1C` (racemic) [Example 15, rac-5-bromo-2-(N-((1R,2S)-2-(6-fluoro-2,3-dimethylphenyl)-1-(2H-tetrazol-5-yl)propyl)sulfamoyl)nicotinamide] were, in that order, not above 100 nM and 50 to 100 µM. The like results for `COc1c(S(=O)(=O)N[C@H](c2nn[nH]n2)[C@H](C)c2c(F)ccc(C)c2C)ccc(Cl)c1[C@H](C)O` (racemic) [Example 16, rac-4-chloro-N-((1R,2S)-2-(6-fluoro-2,3-dimethyphenyl)-1-(2H-tetrazol-5-yl)propyl)-3-((R)-1-hydroxyethyl)-2-methoxybenzenesulfonamide] were, in that order, not above 100 nM and 10 to 30 µM. On to `COc1c(S(=O)(=O)N[C@H](c2nn[nH]n2)[C@H](C)c2c(F)ccc(C)c2C)ccc(Cl)c1[C@@H](C)O` (racemic) [Example 17, rac-4-chloro-N-((1R,2S)-2-(6-fluoro-2,3-dimethylphenyl)-1-(2H-tetrazol-5-yl)propyl)-3-((S)-1-hydroxyethyl)-2-methoxybenzenesulfonamide], for which the IC50 was not above 100 nM against RNR (RNR1:RNR2) and 10 to 30 µM in assay [1] (Homo sapiens, COLO 320DM, 16 h). In the same order, the values of `Cc1ccc(F)c([C@@H](C)[C@H](NS(=O)(=O)c2ccc(C#N)cc2OC(F)F)c2nn[nH]n2)c1C` (racemic) [Example 69, rac-4-cyano-2-(difluoromethxoy)-N-((1R,2S)-2-(6-fluoro-2,3-dimethylphenyl)-1-(2H-tetrazol-5-yl)propyl)benzenesulfonamide] are 100 to 1000 nM and 50 to 100 µM. The like results for `COc1c(S(=O)(=O)N[C@H](c2nn[nH]n2)[C@H](C)c2c(F)ccc(C)c2C)ccc(C#N)c1F` (racemic) [Example 70, rac-4-cyano-3-fluoro-N-((1R,2S)-2-(6-fluoro-2,3-dimethylphenyl)-1-(2H-tetrazol-5-yl)propyl)-2-methoxybenzenesulfonamide] were, in that order, 100 to 1000 nM and 50 to 100 µM. The like results for `Cc1ccc(F)c([C@@H](C)[C@H](NS(=O)(=O)c2ccc(Cl)cc2N(C)C)c2nn[nH]n2)c1C` (racemic) [Example 71, rac-4-chloro-2-(dimethylamino)-N-((1R,2S)-2-(6-fluoro-2,3-dimethylphenyl)-1-(2H-tetrazol-5-yl)propyl)benzenesulfonamide] were, in that order, not above 100 nM and not above 10 µM.

As to `Cc1ccc(F)c([C@@H](C)[C@H](NS(=O)(=O)c2ccc(Cl)c3c2OCC[C@]3(C)O)c2nn[nH]n2)c1C` (single isomer, unassigned) [Example 3], the IC50 was not above 100 nM against RNR (RNR1:RNR2) and 10 to 30 µM in assay [1] (Homo sapiens, COLO 320DM, 16 h). Turning to `Cc1ccc(F)c([C@@H](C)[C@H](NS(=O)(=O)c2ccc(Cl)c3c2OCC[C@@]3(C)O)c2nn[nH]n2)c1C` (single isomer, unassigned) [Example 4], the IC50 at RNR (RNR1:RNR2) was not above 100 nM; in assay [1], 10 to 30 µM.

For the compound `COc1cc(Cl)ccc1S(=O)(=O)N[C@H](c1nn[nH]n1)[C@H](C)c1c(F)ccc(C)c1C` [Example 1, 4-chloro-N-[(1S,2R)-2-(6-fluoro-2,3-dimethylphenyl)-1-(2H-1,2,3,4-tetrazol-5-yl)propyl]-2-methoxybenzene-1-sulfonamide], the half-inhibitory concentration (IC50) against RNR (RNR1:RNR2) was not above 100 nM; in assay [1] (Homo sapiens, COLO 320DM, 16 h), not above 10 µM.

In the case of `Cc1ccc(F)c([C@@H](C)[C@H](NS(=O)(=O)c2ccc(Cl)cc2C(N)=O)c2nn[nH]n2)c1C` [Example 2, 5-chloro-2-(N-((1S,2R)-2-(6-fluoro-2,3-dimethylphenyl)-1-(2H-tetrazol-5-yl)propyl)sulfamoyl)benzamide], the IC50 against RNR (RNR1:RNR2) is not above 100 nM; in assay [1] (Homo sapiens, COLO 320DM, 16 h) it was 50 to 100 µM. As to `Cc1ccc(F)c([C@@H](C)[C@H](NS(=O)(=O)c2ccc(Cl)cc2NC(C)C)c2nn[nH]n2)c1C` [Example 6, 4-chloro-N-((1S,2R)-2-(6-fluoro-2,3-dimethylphenyl)-1-(2H-tetrazol-5-yl)propyl)-2-(isopropylamino)benzenesulfonamide], the 50% inhibitory concentration (IC50) in assay [1] (Homo sapiens, COLO 320DM, 16 h) fell in the range of 50 to 100 µM.

With `Cc1ccc(F)c([C@H](C)[C@H](c2nn[nH]n2)c2c(S(N)(=O)=O)ccc(Cl)c2C#N)c1C` [Example 51, 4-chloro-3-cyano-2-((1S,2R)-2-(6-fluoro-2,3-dimethylphenyl)-1-(2H-tetrazol-5-yl)propyl)benzenesulfonamide], the 50% inhibitory concentration (IC50) at RNR (RNR1:RNR2) lay in the range of 100 to 1000 nM. Turning to `Cc1ccc(F)c(S(=O)(=O)N[C@H](c2nn[nH]n2)[C@H](C)c2c(F)ccc(C)c2C)c1` [Example 52, 2-fluoro-N-((1S,2R)-2-(6-fluoro-2,3-dimethylpehnyl)-1-(2H-tetrazol-5-yl)propyl)-5-methylbenzenesulfonamide], the IC50 at RNR (RNR1:RNR2) is 1000 to 5000 nM.

Compound `C=Cc1cc(Cl)ccc1S(=O)(=O)N[C@H](c1nn[nH]n1)[C@H](C)c1c(F)ccc(C)c1C` [Example 63, 4-chloro-N-((1S,2R)-2-(6-fluoro-2,3-dimethylphenyl)-1-(2H-tetrazol-5-yl)propyl)-2-vinylbenzenesulfonamide] showed an IC50 in assay [1] (Homo sapiens, COLO 320DM, 16 h) of 30 to 50 µM.

In assay [1] (Homo sapiens, COLO 320DM, 16 h), `Cc1ccc(F)c([C@@H](C)[C@H](NS(=O)(=O)c2ccc(Cl)cc2Br)c2nn[nH]n2)c1C` [Example 65, 2-bromo-4-chloro-N-((1S,2R)-2-(6-fluoro-2,3-dimethylphenyl)-1-(2H-tetrazol-5-yl)propyl)benzenesulfonamide] had a half-inhibitory concentration (IC50) of 10 to 30 µM. In turn, `Cc1ccc(F)c([C@@H](C)[C@H](NS(=O)(=O)c2ccc(Cl)c([C@@H](F)C(=O)N(C)C)c2)c2nn[nH]n2)c1C` [Example 66, (R)-2-(2-chloro-5-(N-((1S,2R)-2-(6-fluoro-2,3-dimethylphenyl)-1-(2H-tetrazol-5-yl)propyl)sulfamoyl)phenyl)-2-fluoro-N,N-dimethylacetamide] gave an IC50 in assay [1] (Homo sapiens, COLO 320DM, 16 h) of 50 to 100 µM. The compound `Cc1ccc(F)c([C@@H](C)[C@H](NS(=O)(=O)c2ccc(Cl)c([C@H](F)C(=O)N(C)C)c2)c2nn[nH]n2)c1C` [Example 67, (S)-2-(2-chloro-5-(N-((1S,2R)-2-(6-fluoro-2,3-dimethylphenyl)-1-(2H-tetrazol-5-yl)propyl)sulfamoyl)phenyl)-2-fluoro-N,N-dimethylacetamide] returned a half-inhibitory concentration (IC50) in assay [1] (Homo sapiens, COLO 320DM, 16 h) of 50 to 100 µM. Same read-out and setting: for `Cc1ccc(F)c([C@@H](C)[C@H](NS(=O)(=O)c2ccc(Cl)cc2C(=O)N(C)C)c2nn[nH]n2)c1C` [Example 68, 5-chloro-2-(N-((1S,2R)-2-(6-fluoro-2,3-dimethylphenyl)-1-(2H-tetrazol-5-yl)propyl)sulfamoyl)-N,N-dimethylbenzamide] the value was 50 to 100 µM.

(Values after patent US20240158383A1, “RIBONUCLEOTIDE REDUCTASE (RNR) INHIBITORS AND USES THEREOF” (Boundless Bio, Inc., priority 2021, published 2024).)
